Source: patent publication US12227539B2, “Mogroside compounds and uses thereof” (Firmenich SA, priority 2019, dated 2025)

What was measured:
[1] = Tasting of a sample of the purified compound (taste perceived, sweetness relative to sucrose); settings: for sweetness relative to sucrose: tasted at 500 ppm in a water base, approximate
From the text: The sweetness intensity perceived was weaker than the sweetness intensity perceived with mogroside V. However, the perception of licorice and lingering profile of isomogroside IVe was weaker than that of mogroside V (see table on following page).

[2] = Sensory profile scores (Sweet, Licorice, Lingering) compared with mogroside V
[3] = tasted at a concentration of 500 ppm in a water base
[4] = tasted at a concentration of 250 ppm

C[C@H](C(O)C[C@@H](O[C@@H]1O[C@H](CO[C@@H]2O[C@H](CO)[C@@H](O)[C@H](O)[C@H]2O)[C@@H](O)[C@H](O)[C@H]1O)C(C)(C)O)[C@H]1CC[C@@]2(C)[C@@H]3CC=C4[C@@H](CC[C@H](O[C@@H]5O[C@H](CO)[C@@H](O)[C@H](O)[C@H]5O)C4(C)C)[C@]3(C)[C@H](O)C[C@]12C (stereo partly drawn) [Compound 2a, (1S,4R,9beta,11alpha,24R)-1-(beta-D-glucopyranosyloxy)-11,22,25-trihydroxy-9,10,14-trimethyl-4,9-cyclo-9,10-secocholest-5-en-24-yl 6-O-beta-D-glucopyranosyl-beta-D-glucopyranoside]
sweetness relative to sucrose [1]: 20-50 times sweeter than sucrose | taste perceived [1, 3]: weak sweet taste

C[C@H](CC[C@@H](O[C@@H]1O[C@H](CO[C@@H]2O[C@H](CO)[C@@H](O)[C@H](O)[C@H]2O)[C@@H](O)[C@H](O)[C@H]1O[C@@H]1O[C@H](CO)[C@@H](O)[C@H](O)[C@H]1O)C(C)(C)O)[C@H]1CC[C@@]2(C)[C@@H]3CC=C4[C@@H](CC[C@H](O[C@@H]5O[C@H](CO[C@@H]6O[C@H](CO)[C@@H](O)[C@H](O)[C@H]6O)[C@@H](O)[C@H](O)[C@H]5O)C4(C)C)[C@]3(C=O)C(=O)C[C@]12C [Compound 6a, (1S,4R,9beta,24R)-9-formyl-1-{[6-O-(beta-D-glucopyranosyl)-beta-D-glucopyranosyl]oxy}-25-hydroxy-10,14-dimethyl-11-oxo-4,9-cyclo-9,10-secocholest-5-en-24-yl beta-D-glucopyranosyl-(1→2)-[beta-D-glucopyranosyl-(1→6)]-beta-D-glucopyranoside]
sweetness relative to sucrose [1]: 100-200 times sweeter than sucrose | taste perceived [1, 3]: strong sweet taste

CC(C)(O)[C@@H](CC[C@](C)(O)[C@H]1CC[C@@]2(C)[C@@H]3CC=C4[C@@H](CC[C@H](O[C@@H]5O[C@H](CO[C@@H]6O[C@H](CO)[C@@H](O)[C@H](O)[C@H]6O)[C@@H](O)[C@H](O)[C@H]5O[C@@H]5O[C@H](CO)[C@@H](O)[C@H](O)[C@H]5O)C4(C)C)[C@]3(C)C(=O)C[C@]12C)O[C@@H]1O[C@H](CO[C@@H]2O[C@H](CO)[C@@H](O)[C@H](O)[C@H]2O)[C@@H](O)[C@H](O)[C@H]1O [Compound 9a, (1S,4R,9beta,24R)-24-{[6-O-(beta-D-glucopyranosyl)-beta-D-glucopyranosyl]oxy}-20,25-dihydroxy-9,10,14-trimethyl-11-oxo-4,9-cyclo-9,10-secocholest-5-en-1-yl beta-D-glucopyranosyl-(1→2)-[beta-D-glucopyranosyl-(1→6)]-beta-D-glucopyranoside]
taste perceived [1, 4]: No taste

[(1S,4R,9beta,10R,24R)-24-{[beta-D-glucopyranosyl-(1→6)-beta-D-glucopyranosyl-(1→6)-beta-D-glucopyranosyl]oxy}-1,25-dihydroxy-9,14-dimethyl-11-oxo-4,9-cyclo-9,10-secocholest-5-en-10-yl]methyl beta-D-glucopyranosyl-(1→6)-[beta-D-glucopyranosyl-(1→4)-beta-D-glucopyranosyl-(1→2)]-beta-D-glucopyranoside [Compound 10a]
taste perceived [1, 4]: No taste

C[C@H](CC[C@@H](O[C@@H]1O[C@H](CO[C@@H]2O[C@H](CO)[C@@H](O)[C@H](O)[C@H]2O)[C@@H](O)[C@H](O)[C@H]1O[C@@H]1O[C@H](CO)[C@@H](O)[C@H](O)[C@H]1O)C(C)(C)O)[C@H]1CC[C@@]2(C)[C@@H]3CC=C4[C@@H](CC[C@H](O[C@@H]5O[C@H](CO[C@@H]6O[C@H](CO)[C@@H](O)[C@H](O)[C@H]6O)[C@@H](O)[C@H](O)[C@H]5O)C4(C)C)[C@]3(C)[C@H](O)C[C@]12C [Mogroside V, reference compound]
Licorice ([2]; Dosage 250 ppm): 3.8 | Lingering ([2]; Dosage 250 ppm): 4.9 | Sweet ([2]; Dosage 250 ppm): 6.0 | Licorice ([2]; Dosage 500 ppm): 4.2 | Lingering ([2]; Dosage 500 ppm): 5.2 | Sweet ([2]; Dosage 500 ppm): 7.2

(1S,4R,9beta,24R)-1-{[6-O-(beta-D-glucopyranosyl)-beta-D-glucopyranosyl]oxy}-25-hydroxy-9-(hydroxymethyl)-10,14-dimethyl-11-oxo-4,9-cyclo-9,10-secocholest-5-en-24-yl beta-D-glucopyranosyl-(1→2)-[beta-D-glucopyranosyl-(1→6)]-beta-D-glucopyranoside [Compound 5a]
taste perceived [1, 4]: No taste

CC(C)(O)[C@@H](CC[C@](C)(O)[C@H]1CC[C@@]2(C)[C@@H]3CC=C4[C@@H](CC[C@H](O[C@@H]5O[C@H](CO[C@@H]6O[C@H](CO)[C@@H](O)[C@H](O)[C@H]6O)[C@@H](O)[C@H](O)[C@H]5O)C4(C)C)[C@]3(C)[C@H](O)C[C@]12C)O[C@@H]1O[C@H](CO[C@@H]2O[C@H](CO)[C@@H](O)[C@H](O)[C@H]2O)[C@@H](O)[C@H](O)[C@H]1O[C@@H]1O[C@H](CO)[C@@H](O)[C@H](O)[C@H]1O [Compound 7a, (1S,4R,9beta,11alpha,24R)-1-{[6-O-(beta-D-glucopyranosyl)-beta-D-glucopyranosyl]oxy}-11,20,25-trihydroxy-9,10,14-trimethyl-4,9-cyclo-9,10-secocholest-5-en-24-yl beta-D-glucopyranosyl-(1→2)-[beta-D-glucopyranosyl-(1→6)]-beta-D-glucopyranoside]
taste perceived [1, 4]: No taste

(1S,4R,9beta,11alpha,24R)-24-{[6-O-(beta-D-glucopyranosyl)-beta-D-glucopyranosyl]oxy}-11,22,25-trihydroxy-9,10,14-trimethyl-4,9-cyclo-9,10-secocholest-5-en-1-yl 4-O-beta-D-glucopyranosyl-beta-D-glucopyranoside [Compound 3a]
taste perceived [1, 4]: No taste

C[C@H](C(O)C[C@@H](O[C@@H]1O[C@H](CO[C@@H]2O[C@H](CO)[C@@H](O)[C@H](O)[C@H]2O)[C@@H](O)[C@H](O)[C@H]1O)C(C)(C)O)[C@H]1CC[C@@]2(C)[C@@H]3CC=C4[C@@H](CC[C@H](O[C@@H]5O[C@H](CO)[C@@H](O)[C@H](O)[C@H]5O)C4(C)C)[C@]3(C)[C@@H](O)C[C@]12C (stereo partly drawn) [Compound 2b, (1S,4R,9beta,11beta,24R)-1-(beta-D-glucopyranosyloxy)-11,22,25-trihydroxy-9,10,14-trimethyl-4,9-cyclo-9,10-secocholest-5-en-24-yl 6-O-beta-D-glucopyranosyl-beta-D-glucopyranoside]
taste perceived [1, 4]: No taste

C[C@H](CC[C@@H](O[C@@H]1O[C@H](CO[C@@H]2O[C@H](CO)[C@@H](O)[C@H](O)[C@H]2O)[C@@H](O)[C@H](O)[C@H]1O[C@@H]1O[C@H](CO)[C@@H](O)[C@H](O)[C@H]1O)C(C)(C)O)[C@H]1CC[C@@]2(C)[C@@H]3CC=C4[C@@H](CC[C@H](O[C@@H]5O[C@H](CO[C@@H]6O[C@H](CO)[C@@H](O)[C@H](O)[C@H]6O)[C@@H](O)[C@H](O)[C@H]5O[C@@H]5O[C@H](CO)[C@@H](O)[C@H](O)[C@H]5O)C4(C)C)[C@]3(C)[C@H](O)C[C@]12C (stereo in doubt) [Compound 14a, (1S,4R,9beta,11beta,24R)-1-{[beta-D-glucopyranosyl-(1→2)-[beta-D-glucopyranosyl-(1→6)]-beta-D-glucopyranosyl]oxy}-11,25-dihydroxy-9,10,14-trimethyl-4,9-cyclo-9,10-secocholest-5-en-24-yl beta-D-glucopyranosyl-(1→2)-[beta-D-glucopyranosyl-(1→6)]-beta-D-glucopyranoside]
taste perceived [1, 4]: No taste

C[C@H](C(O)C[C@@H](O[C@@H]1O[C@H](CO[C@@H]2O[C@H](CO)[C@@H](O)[C@H](O)[C@H]2O)[C@@H](O)[C@H](O)[C@H]1O)C(C)(C)O)[C@H]1CC[C@@]2(C)[C@@H]3CC=C4[C@@H](CC[C@H](O[C@@H]5O[C@H](CO[C@@H]6O[C@H](CO)[C@@H](O)[C@H](O)[C@H]6O)[C@@H](O)[C@H](O)[C@H]5O)C4(C)C)[C@]3(C)[C@H](O)C[C@]12C (stereo partly drawn) [Compound 1a, (1S,4R,9beta,11alpha,24R)-1-{[6-O-(beta-D-glucopyranosyl)-beta-D-glucopyranosyl]oxy}-11,22,25-trihydroxy-9,10,14-trimethyl-4,9-cyclo-9,10-secocholest-5-en-24-yl 6-O-beta-D-glucopyranosyl-beta-D-glucopyranoside]
taste perceived [1, 4]: No taste

CC(C)(O)[C@@H](CC[C@](C)(O)[C@H]1CC[C@@]2(C)[C@@H]3CC=C4[C@@H](CC[C@H](O[C@@H]5O[C@H](CO)[C@@H](O)[C@H](O)[C@H]5O)C4(C)C)[C@]3(C)C(=O)C[C@]12C)O[C@@H]1O[C@H](CO[C@@H]2O[C@H](CO)[C@@H](O)[C@H](O)[C@H]2O)[C@@H](O)[C@H](O)[C@H]1O [Compound 8a, (1S,4R,9beta,24R)-1-(beta-D-glucopyranosyloxy)-20,25-dihydroxy-9,10,14-trimethyl-11-oxo-4,9-cyclo-9,10-secocholest-5-en-24-yl 6-O-beta-D-glucopyranosyl-beta-D-glucopyranoside]
taste perceived [1, 4]: No taste

C[C@H](CC[C@@H](O[C@@H]1O[C@H](CO[C@@H]2O[C@H](CO)[C@@H](O)[C@H](O)[C@H]2O)[C@@H](O)[C@H](O)[C@H]1O[C@@H]1O[C@H](CO)[C@@H](O)[C@H](O)[C@H]1O)C(C)(C)O)[C@H]1CC[C@@]2(C)[C@@H]3C(O)C=C4[C@@H](CC[C@H](O[C@@H]5O[C@H](CO[C@@H]6O[C@H](CO)[C@@H](O)[C@H](O)[C@H]6O)[C@@H](O)[C@H](O)[C@H]5O)C4(C)C)[C@]3(C)[C@H](O)C[C@]12C (stereo partly drawn) [Compound 4a, (1S,4R,9beta,11alpha,24R)-1-{[6-O-(beta-D-glucopyranosyl)-beta-D-glucopyranosyl]oxy}-7,11,25-trihydroxy-9,10,14-trimethyl-4,9-cyclo-9,10-secocholest-5-en-24-yl beta-D-glucopyranosyl-(1→2)-[beta-D-glucopyranosyl-(1→6)]-beta-D-glucopyranoside]
sweetness relative to sucrose [1]: 30-60 times sweeter than sucrose | taste perceived [1, 3]: weak sweet taste

isomogroside IVe
perception of licorice and lingering profile compared with mogroside V ([2]; 250 ppm in a water base): weaker
